Experimental data reported in PMC5994430, “Mitochondrial Delivery of Phenol Substructure Triggers Mitochondrial Depolarization and Apoptosis of Cancer Cells” (Frontiers in Pharmacology, 2018).

Columns and labels:
Type in all cases: cell-based, Human
PGC-1α [1] = experiment: Immunoblot of nuclear PGC-1α in A549 cells; conditions: 0.1 μM, 4 h
PGC-1α [2] = experiment: Immunoblot of nuclear PGC-1α in BEAS-2B cells; conditions: 0.1 μM, 4 h
A549 cells [3] = experiment: Mitochondrial mass (MitoTracker Green staining); conditions: 0.1 μM, 4 h
Experimental: The amount of proteins in mitochondrial extracts, normalized to the total amount of cellular proteins, was considered an index of mitochondrial mass ([Jean et al., 2015]). Mitochondria biogenesis was evaluated by measuring the expressions of subunit I of COX-I, which is encoded by mitochondrial DNA, and of the SDH-A of complex II, which is encoded by nuclear DNA, using the MitoBiogenesis^TM In-Cell ELISA Kit (Abcam), following the manufacturer’s instructions. The unit (U) of each protein/mg mitochondrial proteins were calculated. Results were expressed as COX-1/SDH-A ratio.
0.5 × 10^5 cells were grown on sterile glass coverslips. […] The samples were analyzed with an Olympus FV300 laser scanning confocal microscope equipped with a Blue Argon (488 nm) laser, a Green Helium Neon (543 nm) laser, and FluoView 300 software (Olympus Biosystems, Hamburg, Germany). […]
[t] […] (E,F) The electron transport was measured spectrophotometrically in duplicates. ATP levels in mitochondrial extracts was measured by a chemiluminescence-based assay, in duplicates. […] (G,H) ROS amount in mitochondrial extracts and mitochondrial damage were measured fluorimetrically, in duplicates. […] There were no statistically significant differences between untreated (ctrl) and compound 1/compound 2-treated BEAS-2B cells for all the parameters analyzed in this figure.

mitochondrial ROS = experiment: Mitochondrial ROS (MitoSOX Red) in BEAS-2B cells; conditions: 0.1 μM, 4 h
Experimental: The amount of ROS in mitochondrial extracts was measured fluorimetrically by incubating cell suspension at 37°C for 10 min with 10 μM of MitoSOX Red probe (Invitrogen Life Technologies), as per manufacturer’s instructions. Results were expressed as nmoles/mg mitochondrial proteins, using a calibration curve previously set with serial dilution of H2O2.
[t] Continuedof three experiments with similar results. (D) Confocal analysis of mitochondrial staining with MitoTracker® Green FM. Magnification: 60 × objective (0.52 numerical aperture); 10 × ocular lens. Bar: 10 μM. The micrographs are representative of three experiments with similar results. (E,F) The electron transport was measured spectrophotometrically in duplicates. ATP levels in mitochondrial extracts was measured by a chemiluminescence-based assay, in duplicates. Data are means ± SD (n = 3). For both panels: ^∗p < 0.001 vs. A549 ctrl cells; °p < 0.001 for BEAS-2B cells vs. the corresponding condition in A549 cells. (G,H) ROS amount in mitochondrial extracts and mitochondrial damage were measured fluorimetrically, in duplicates. Data are means ± SD (n = 3). […] There were no statistically significant differences between untreated (ctrl) and compound 1/compound 2-treated BEAS-2B cells for all the parameters analyzed in this figure.

caspase 9 = experiment: Caspase 9 activity in A549 cell lysates; conditions: 0.1 μM, 24 h
Experimental: (§1) The activity of caspase 9 and 3 was measured by incubating 20 μg cell lysates with the respective fluorogenic substrates Ac-LEHD-AMC (LEHD-AMC) or DEVD-AMC (DEVD-AMC), as reported ([Pinzón-Daza et al., 2012]). Results were expressed as nmoles AMC/mg protein.
(§2) FIGURE 7 Effects of phenol TPP-derivatives on mitochondria-dependent apoptosis. A549 and BEAS-2B cells were incubated 24 h in fresh medium (ctrl) or in medium containing 0.1 μM of 1 or 2. (A,B) The activity of caspase 9 and 3 was measured fluorimetrically, in duplicates. Data are means ± SD (n = 3). For both panels: ^∗p < 0.001 vs. A549 ctrl cells; °p < 0.001 for BEAS-2B cells vs. the corresponding condition in A549 cells. (C,D) Cell cycle distribution, measured in duplicates. Data are means ± SD (n = 3). For both panels: ^∗p < 0.001 vs. A549 ctrl cells: °p < 0.001 for BEAS-2B cells vs. the corresponding condition in A549 cells. (E) Bright field microscope analysis of cells. Magnification: 60 × objective (0.52 numerical aperture); 10 × ocular lens. Bar: 20 μM. The micrographs are representative of three experiments with similar results.

caspase 3 = experiment: Caspase 3 activity in A549 cell lysates; conditions: 0.1 μM, 24 h
Experimental: as §1, §2

A549 cells [4] = experiment: Extracellular LDH release; conditions: 0.1, 1 or 10 μM, 24 h
Experimental: (§3) The extracellular release of LDH, considered an index of cell damage and necrosis, was measured spectrophotometrically, as reported ([Riganti et al., 2013b]). The extracellular medium was centrifuged at 12,000 × g for 15 min to pellet cellular debris, the cells were washed with fresh medium, detached with 0.01% trypsin/EDTA, re-suspended in 0.2 ml of 82.3 mM triethanolamine phosphate-HCl (pH 7.6), and sonicated on ice with two 10-sec bursts. LDH activity was measured in the extracellular medium and in the cell lysate: 50 μl of extracellular medium or 5 μl of cell lysate were incubated at 37°C with 5 mM NADH. The reaction was started by adding 20 mM pyruvic acid and was monitored for 6 min, measuring absorbance at 340 nm using a Synergy HT Multi-Detection Microplate Reader (Bio-Tek Instruments, Winoosky, MT, United States). The reaction kinetics were linear throughout the time of measurement. Both intracellular and extracellular enzyme activities were expressed as μmol NADH oxidized/min/dish. The results were expressed as percentage of extracellular LDH versus total (intracellular plus extracellular) LDH. Cell viability was measured by the neutral red staining method, as previously reported ([Riganti et al., 2015b]). The absorbance of untreated cells was considered as 100% viability; the results were expressed as percentage of viable cells versus untreated cells. IC50 was calculated with the CompuSyn software^1.
(§4) Supplementary Figure 3. Cytotoxic effects of compound 15 and 16. A549 and BEAS-2B cells were grown in fresh medium (0) or incubated with 0.1, 1 or 10 µM of 15 and 16 for 24 h (panel A) or 72 h (panel B). A. The release of LDH was measured spectrophotometrically in duplicates. Data are means ± SD (n=3). B. Cell viability was measured spectrophotometrically in quadruplicates. Data are […]
(§5) (1 picture or pasted object on this page, not shown here)

BEAS-2B cells = experiment: Extracellular LDH release; conditions: 0.1, 1 or 10 μM, 24 h
Experimental: as §3, §4, §5

Row | SMILES | nuclear level of PGC-1α (PGC-1α [1]) | nuclear level of PGC-1α (PGC-1α [2]) | mitochondrial mass (A549 cells [3]) | mitochondrial ROS (mitochondrial ROS) | activity of caspase 9 (caspase 9) | activity of caspase 3 (caspase 3) | release of LDH (A549 cells [4]) | release of LDH (BEAS-2B cells)
1 | CC(=O)Oc1ccc(C[P+](c2ccccc2)(c2ccccc2)c2ccccc2)cc1.[Br-] [Compound 1] | reduced | unaffected | reduced the mitochondrial mass | negligible modifications | strong activation | strong activation |  | 
2 | O=C(Oc1ccc(C[P+](c2ccccc2)(c2ccccc2)c2ccccc2)cc1C(F)(F)F)c1ccccc1.[Br-] [Compound 2] | reduced | unaffected | reduced the mitochondrial mass | negligible modifications | strong activation | strong activation |  | 
3 | Oc1ccc(C[P+](c2ccccc2)(c2ccccc2)c2ccccc2)cc1.[Br-] [Compound 15] |  |  |  |  |  |  | did not increase the release of LDH | did not increase the release of LDH
4 | Oc1ccc(C[P+](c2ccccc2)(c2ccccc2)c2ccccc2)cc1C(F)(F)F.[Br-] [Compound 16] |  |  |  |  |  |  | did not increase the release of LDH | did not increase the release of LDH
